Reference: ChEMBL document CHEMBL2346585, “Novel 1,3,4-oxadiazole thioether derivatives targeting thymidylate synthase as dual anticancer/antimicrobial agents” (Bioorg Med Chem, 2013)
Values after ≈ are worked out from the molar mass of the structure shown.

Key:
MCF7 = experiment: cells; conditions: Homo sapiens, MCF7, 48 h
Description: Cytotoxicity against human MCF7 cells after 48 hrs by MTT assay

SGC-7901 = experiment: cells; conditions: Homo sapiens, SGC-7901, 48 h
Description: Cytotoxicity against human SGC7901 cells after 48 hrs by MTT assay

HepG2 = experiment: cells; conditions: Homo sapiens, HepG2, 48 h
Description: Cytotoxicity against human HepG2 cells after 48 hrs by MTT assay

[1] = Inhibition of Escherichia coli thymidylate synthase by spectrophotometric analysis
Pseudomonas aeruginosa = experiment: Antibacterial activity against Pseudomonas aeruginosa ATCC 27853 assessed as growth inhibition after 24 hrs by MTT assay; type: functional; conditions: ATCC 27853, 24 h
Staphylococcus aureus = experiment: Antibacterial activity against Staphylococcus aureus ATCC 530 assessed as growth inhibition after 24 hrs by MTT assay; type: functional; conditions: ATCC 530, 24 h
Escherichia coli = experiment: Antibacterial activity against Escherichia coli ATCC 25922 assessed as growth inhibition after 24 hrs by MTT assay; type: functional; conditions: ATCC 25922, 24 h
Bacillus subtilis = experiment: Antibacterial activity against Bacillus subtilis […] assessed as growth inhibition after 24 hrs by MTT assay; type: functional

SMILES	IC50 (MCF7) [µM]	IC50 (SGC-7901) [µM]	IC50 (HepG2) [µM]	IC50 [1] [µM]	MIC (Pseudomonas aeruginosa) [µg/mL]	MIC (Staphylococcus aureus) [µg/mL]	MIC (Escherichia coli) [µg/mL]	MIC (Bacillus subtilis) [µg/mL]
Cc1ncc([N+](=O)[O-])n1CCSc1nnc(-c2cccs2)o1	25.8	30.8	20.5	–	–	–	–	–
Cc1ncc([N+](=O)[O-])n1CCSc1nnc(-c2ccc3ccccc3c2)o1	34.1	30.7	10.1	–	–	–	–	–
Cc1ncc([N+](=O)[O-])n1CCSc1nnc(-c2ccc3c(c2)OCCO3)o1	14.5	9.2	4.1	2.4	–	–	–	–
Cc1ncc([N+](=O)[O-])n1CCSc1nnc(-c2ccc(F)cc2)o1	8.1	5.3	0.6	3.9	–	–	–	–
Cc1ncc([N+](=O)[O-])n1CCSc1nnc(-c2ccccc2Cl)o1	22.5	32.6	15.6	–	–	–	–	–
Cc1ncc([N+](=O)[O-])n1CCSc1nnc(-c2ccc(Cl)cc2)o1	18.7	31.9	7.8	–	–	–	–	–
Cc1ncc([N+](=O)[O-])n1CCSc1nnc(-c2ccccc2O)o1	28.3	30.5	19.6	–	–	–	–	–
Cc1ncc([N+](=O)[O-])n1CCSc1nnc(-c2ccc(C(C)C)cc2)o1	20.7	13.8	4.3	> 10	–	–	–	–
Cc1ncc([N+](=O)[O-])n1CCSc1nnc(-c2ccc(C(C)(C)C)cc2)o1	22.1	31.1	4	> 10	–	–	–	–
Cc1ncc([N+](=O)[O-])n1CCSc1nnc(-c2ccc(N(C)C)cc2)o1	14.9	32.8	11.9	–	–	–	–	–
Cc1cccc(-c2nnc(SCCn3c([N+](=O)[O-])cnc3C)o2)c1O	19.9	35.9	8.7	–	–	–	–	–
Cc1ccc(-c2nnc(SCCn3c([N+](=O)[O-])cnc3C)o2)c(O)c1	23.5	36.7	16.6	–	–	–	–	–
COc1ccc(-c2nnc(SCCn3c([N+](=O)[O-])cnc3C)o2)c(O)c1	21.8	11.7	11	–	–	–	–	–
COc1cc(OC)cc(-c2nnc(SCCn3c([N+](=O)[O-])cnc3C)o2)c1	12.8	9.6	10.5	–	–	–	–	–
COc1cc(-c2nnc(SCCn3c([N+](=O)[O-])cnc3C)o2)cc(OC)c1OC	30.6	34.8	14.9	> 10	–	–	–	–
Cc1ncc([N+](=O)[O-])n1CCSc1nnc(-c2ccco2)o1	29.5	31.7	22.6	–	–	–	–	–
Cc1ncc([N+](=O)[O-])n1CCSc1nnc(-c2ccccn2)o1	39.1	30	20.2	–	–	–	–	–
Cc1ncc([N+](=O)[O-])n1CCSc1nnc(-c2cccnc2)o1	28.7	31.6	9.6	–	–	–	–	–
Cc1ncc([N+](=O)[O-])n1CCSc1nnc(-c2cnccc2N)o1	29.3	34.5	8.4	1.8	12.5 (≈ 36 µM)	25 (≈ 72 µM)	12.5 (≈ 36 µM)	50 (≈ 144 µM)
Cc1ncc([N+](=O)[O-])n1CCSc1nnc(-c2ccc(N)nc2)o1	26.8	30.9	9.4	–	–	–	–	–

SMILES	IC50 (MCF7) [µM]	IC50 (SGC-7901) [µM]	IC50 (HepG2) [µM]	IC50 [1] [µM]	MIC (Pseudomonas aeruginosa) [µg/mL]	MIC (Staphylococcus aureus) [µg/mL]	MIC (Escherichia coli) [µg/mL]	MIC (Bacillus subtilis) [µg/mL]
Cc1ncc([N+](=O)[O-])n1CCSc1nnc(-c2ccncc2)o1	12.6	15.9	14.8	–	–	–	–	–
Cc1ncc([N+](=O)[O-])n1CCSc1nnc(-c2ccnc(N)c2)o1	20	30	0.9	1.27	6.25 (≈ 18 µM)	25 (≈ 72 µM)	3.13 (≈ 9.01 µM)	50 (≈ 144 µM)
Cc1ncc([N+](=O)[O-])n1CCSc1nnc(-c2ccnc(Cl)c2)o1	40.5	32.3	11.6	4.1	–	–	–	–
Cc1ncc([N+](=O)[O-])n1CCSc1nnc(-c2cccc3ccccc23)o1	30.1	8.8	10.6	–	–	–	–	–
Cc1ncc([N+](=O)[O-])n1CCSc1nnc(-c2ccccc2)o1	20.5	30.1	17.5	–	–	–	–	–
Cc1ccccc1-c1nnc(SCCn2c([N+](=O)[O-])cnc2C)o1	15.8	32.3	5.1	–	–	–	–	–
Cc1ccc(-c2nnc(SCCn3c([N+](=O)[O-])cnc3C)o2)cc1	15.5	12.5	2.2	> 10	–	–	–	–
COc1ccccc1-c1nnc(SCCn2c([N+](=O)[O-])cnc2C)o1	10.8	30.5	10	–	–	–	–	–
COc1ccc(-c2nnc(SCCn3c([N+](=O)[O-])cnc3C)o2)cc1	10.6	10.2	5.8	–	–	–	–	–
Cc1ncc([N+](=O)[O-])n1CCSc1nnc(-c2ccccc2N)o1	20.1	35.1	4.5	–	–	–	–	–
Cc1ncc([N+](=O)[O-])n1CCSc1nnc(-c2ccc(N)cc2)o1	19.8	31.7	6.7	–	–	–	–	–
CCOc1ccccc1-c1nnc(SCCn2c([N+](=O)[O-])cnc2C)o1	25.9	30.3	9.8	–	–	–	–	–
CCOc1ccc(-c2nnc(SCCn3c([N+](=O)[O-])cnc3C)o2)cc1	16.6	14.1	1.9	6.3	–	–	–	–
Cc1ncc([N+](=O)[O-])n1CCSc1nnc(-c2ccccc2[N+](=O)[O-])o1	18.3	30	0.7	0.47	3.13 (≈ 8.32 µM)	1.56 (≈ 4.15 µM)	1.56 (≈ 4.15 µM)	3.13 (≈ 8.32 µM)
Cc1ncc([N+](=O)[O-])n1CCSc1nnc(-c2ccc([N+](=O)[O-])cc2)o1	12.7	12.2	4.1	–	–	–	–	–
Cc1ncc([N+](=O)[O-])n1CCSc1nnc(-c2ccccc2F)o1	20.5	33.7	3.7	–	–	–	–	–
O=c1[nH]cc(F)c(=O)[nH]1 [FLUOROURACIL]	16.7	28.9	22.8	–	–	–	–	–
NC[C@H]1O[C@H](O[C@H]2[C@H](O)[C@@H](O[C@H]3O[C@H](CO)[C@@H](O)[C@H](N)[C@H]3O)[C@H](N)C[C@@H]2N)[C@H](O)[C@@H](O)[C@@H]1O [KANAMYCIN]	–	–	–	–	3.13 (≈ 6.46 µM)	1.56 (≈ 3.22 µM)	3.13 (≈ 6.46 µM)	1.56 (≈ 3.22 µM)
Nc1nc2[nH]cc(CCc3ccc(C(=O)N[C@@H](CCC(=O)O)C(=O)O)cc3)c2c(=O)[nH]1 [PEMETREXED]	–	–	–	76	–	–	–	–
Cc1nc(=O)c2cc(CN(C)c3ccc(C(=O)N[C@@H](CCC(=O)O)C(=O)O)s3)ccc2[nH]1 [RALTITREXED]	12.6	8.7	1.3	–	50 (≈ 109 µM)	50 (≈ 109 µM)	25 (≈ 54.5 µM)	25 (≈ 54.5 µM)
